Measured values from patent US20120116069A1, “GLUCOSE METABOLISM-IMPROVING AGENT AND GLUCOSE METABOLISM-IMPROVING COMPOSITION” (LION CORPORATION, priority 2009, published 2012).

Legend:
[1] = test system: model mice of hyperglycemia (KKAy mice); assay: Blood sugar level of model mice of hyperglycemia bred five days on PT- or PD-containing high fat diet; assay type: in vivo, mouse; conditions: for Blood sugar level (post-breeding): after five days; for Blood sugar level (initial value): before breeding
From the text: Panaxatriol (PT) (product of LKT Laboratories, Inc.) was mixed with a commercially available high fat diet (trade name: Quick Fat, product of CLEA Japan, Inc.) in amounts shown in the following Table 1. Each of the thus-prepared feeds was given ad libitum to model mice of hyperglycemia (KKAy mice (product of CLEA Japan, Inc.), eight weeks old, 5 mice/group) to breed them for five days (hereinafter these groups may be referred to as “PT-containing group”). Mice of a control group were given a panaxatriol (PT)-free feed (hereinafter this group may be referred to as “PT-free group”). The blood sugar level was measured at 10 a.m. before breeding of the panaxatriol (PT)-containing high fat diet (initial value) and after breeding thereof (post-breeding). […] GB SENSOR (product of Sanko Junyaku Co., Ltd.) was used for the measurement of the blood sugar level. The values shown in the following Table 1 are calculated on the basis of the average value of two values obtained by measuring each individual twice for the postprandial blood sugar level. […] Panaxadiol (PD) (product of LKT Laboratories, Inc.) was mixed with a commercially available high fat diet (trade name: Quick Fat, product of CLEA Japan, Inc.) in amounts shown in the following Table 2. Each of the thus-prepared feeds was given ad libitum to model mice of hyperglycemia (KKAy mice (product of CLEA Japan, Inc.), eight weeks old, 5 mice/group) to breed them for five days (hereinafter these groups may be referred to as “PD-containing group”). Mice of a control group were given a panaxadiol (PD)-free feed (hereinafter this group may be referred to as “PD-free group”). The blood sugar level was measured at 10 a.m. before breeding of the panaxadiol (PD)-containing high fat diet (initial value) and after breeding thereof (post-breeding). […] GB SENSOR (product of Sanko Junyaku Co., Ltd.) was used for the measurement of the blood sugar level. The values shown in the following Table 2 are calculated on the basis of the average value of two values obtained by measuring each individual twice for the postprandial blood sugar level.

[2] = test system: human subjects having a fasting blood sugar level of 120 mg/dL to 140 mg/dL; assay: Test of PT/PD intake for human: fasting and postprandial blood sugar level, blood indices; assay type: in vivo; conditions: for fasting blood sugar level: 8 mg capsule once a day for eight weeks; for fasting blood sugar level / postprandial blood sugar level: compared with the placebo-given group; for postprandial blood sugar level / 1-5AG / Glycoalbumin / HbA1c / Insulin (fasting): 8 mg capsule once a day; for postprandial blood sugar level: 30 min, 60 min and 120 min, starch food load
Experimental: (§1) Panax notoginseng powder (10 g) was suspended in 100 mL of 30% by mass aqueous solution of ethanol, and then saponins were extracted under heating for 2 hours. The obtained extract was hydrolyzed in the presence of hydrochloric acid to prepare an aglycon-containing product. The aglycon-containing product was treated with a silica gel column (SILICA GEL 60N, product of KANTO CHEMICAL CO., LTD.) to isolate and prepare panaxatriol (PT) having a purity of 99% by mass or higher.
Next, capsules each containing 8 mg of the thus-prepared panaxatriol (PT) were prepared. These capsules were given continuously for eight weeks to human subjects of a group (hereinafter may be referred to as “PT-given group”) to measure the fasting blood sugar level and a change in postprandial blood sugar level which was measured after giving to the human subjects predetermined meals such as a meal containing an excessive amount of starch food (e.g., a rice ball formed of 200 g of cooked rice (350 kcal)). Also, the blood indices measured were the blood HbA1c level, the blood glycoalbumin level, the blood 1·5AG level and the fasting blood insulin level.
The blood sugar levels were measured with a simplified blood sugar meter FREESTYLE (product of NIPRO Co.). The fasting blood sugar level and the fasting insulin level were measured at 9 a.m. The postprandial blood sugar level was measured every 30 min for 120 min from 9 a.m. to 11:30 a.m. after the predetermined starch food had been given to the subjects. The HbA1c, glycoalbumin and 1·5AG levels were measured by a routine method of a medical facility using the blood sampled at 9 a.m.
(§2) The 24 subjects were randomly divided to two groups and assigned to a placebo-given group, serving as a control, and a PT-given group. Also, the results were statistically analyzed using the Student's t-test comparing the placebo-given group and the PT-given group. The time at which the capsules were given was set to 10 a.m. every day so that the capsules were not given at the same time as a meal.
as §1, with “panaxadiol (PD)” for “panaxatriol (PT)”
Next, capsules each containing 8 mg of the thus-prepared panaxadiol (PD) were prepared. These capsules were given continuously for eight weeks to human subjects of a group (hereinafter may be referred to as “PD-given group”) to measure the fasting blood sugar level and a change in postprandial blood sugar level which was measured after giving to the human subjects predetermined meals such as a meal containing an excessive amount of starch food (e.g., a rice ball formed of 200 g of cooked rice (350 kcal)). Also, the blood indices measured were the blood HbA1c level, the blood glycoalbumin level, the blood 1·5AG level and the fasting blood insulin level.
as §2, with “and a PD-given group. Also,” for “and a PT-given group. Also,”, “and the PD-given group. The” for “and the PT-given group. The”, “time as the meal.” for “time as a meal.”

[3] = 0.0001% by mass in high fat diet ad libitum
[4] = 0.001% by mass in high fat diet ad libitum
[5] = 0.01% by mass in high fat diet ad libitum
[6] = group 0.0001% by mass in high fat diet
[7] = group 0.001% by mass in high fat diet
[8] = group 0.01% by mass in high fat diet

SMILES: CC1(C)CCC[C@](C)([C@H]2CC[C@]3(C)[C@@H]2[C@H](O)C[C@@H]2[C@@]4(C)CC[C@H](O)C(C)(C)[C@@H]4[C@@H](O)C[C@]23C)O1 [PT, panaxatriol]
- Blood sugar level (post-breeding) [1, 3]: 401 ± 15 mg/dL
- Blood sugar level (post-breeding) [1, 4]: 318 ± 58 mg/dL
- Blood sugar level (post-breeding) [1, 5]: 265 ± 39 mg/dL
- Blood sugar level (initial value) [1, 6]: 455 ± 39 mg/dL
- Blood sugar level (initial value) [1, 7]: 451 ± 34 mg/dL
- Blood sugar level (initial value) [1, 8]: 451 ± 38 mg/dL
- fasting blood sugar level [2]: decreased significantly
- postprandial blood sugar level [2]: decrease significantly
- 1-5AG ([2]; Week 0): 24.3 ± 7.7 µg/mL
- Glycoalbumin ([2]; Week 0): 14.7 ± 1.3 % by mass
- HbA1c ([2]; Week 0): 5.1 ± 0.1 % by mass
- Insulin (fasting) ([2]; Week 0): 5.5 ± 1.5 μU/mL
- 1-5AG ([2]; Week 2): 24.2 ± 7.1 µg/mL
- Glycoalbumin ([2]; Week 2): 14.5 ± 1.3 % by mass
- HbA1c ([2]; Week 2): 5.1 ± 0.2 % by mass
- Insulin (fasting) ([2]; Week 2): 6.1 ± 2.1 μU/mL
- 1-5AG ([2]; Week 4): 25.0 ± 7.5 µg/mL
- Glycoalbumin ([2]; Week 4): 14.3 ± 1.3 % by mass
- HbA1c ([2]; Week 4): 5.1 ± 0.1 % by mass
- Insulin (fasting) ([2]; Week 4): 5.8 ± 4.2 μU/mL
- 1-5AG ([2]; Week 8): 25.6 ± 6.3 µg/mL
- Glycoalbumin ([2]; Week 8): 14.2 ± 1.3 % by mass
- HbA1c ([2]; Week 8): 4.8 ± 0.2 % by mass
- Insulin (fasting) ([2]; Week 8): 6.2 ± 2.4 μU/mL

SMILES: CC1(C)CCC[C@](C)([C@H]2CC[C@]3(C)[C@@H]2[C@H](O)C[C@@H]2[C@@]4(C)CC[C@H](O)C(C)(C)[C@@H]4CC[C@]23C)O1 [PD, panaxadiol]
- Blood sugar level (post-breeding) [1, 3]: 404 ± 17 mg/dL
- Blood sugar level (post-breeding) [1, 4]: 323 ± 56 mg/dL
- Blood sugar level (post-breeding) [1, 5]: 274 ± 34 mg/dL
- Blood sugar level (initial value) [1, 6]: 454 ± 38 mg/dL
- Blood sugar level (initial value) [1, 7]: 451 ± 34 mg/dL
- Blood sugar level (initial value) [1, 8]: 454 ± 32 mg/dL
- fasting blood sugar level [2]: decreased significantly
- postprandial blood sugar level [2]: decrease significantly
- 1-5AG ([2]; Week 0): 24.4 ± 7.8 µg/mL
- Glycoalbumin ([2]; Week 0): 14.8 ± 1.4 % by mass
- HbA1c ([2]; Week 0): 5.1 ± 0.1 % by mass
- Insulin (fasting) ([2]; Week 0): 5.6 ± 1.4 μU/mL
- 1-5AG ([2]; Week 2): 24.1 ± 7.2 µg/mL
- Glycoalbumin ([2]; Week 2): 14.5 ± 1.2 % by mass
- HbA1c ([2]; Week 2): 5.1 ± 0.2 % by mass
- Insulin (fasting) ([2]; Week 2): 5.9 ± 2.2 μU/mL
- 1-5AG ([2]; Week 4): 25.0 ± 7.3 µg/mL
- Glycoalbumin ([2]; Week 4): 14.3 ± 1.3 % by mass
- HbA1c ([2]; Week 4): 5.1 ± 0.1 % by mass
- Insulin (fasting) ([2]; Week 4): 5.9 ± 3.8 μU/mL
- 1-5AG ([2]; Week 8): 25.7 ± 6.4 µg/mL
- Glycoalbumin ([2]; Week 8): 14.2 ± 1.1 % by mass
- HbA1c ([2]; Week 8): 4.8 ± 0.1 % by mass
- Insulin (fasting) ([2]; Week 8): 6.1 ± 2.6 μU/mL
